Test results: PubChem BioAssay AID330 (DTP/NCI, 2004)
Where “and” joins values, the source holds several entries; their conditions need not be identical. Identical values can stand only once. Inconclusive results and toxic doses are left out. Rule for the calls: active = survival T/C of 150% or more; inactive = T/C below 125% in these data.

System: P388 leukemia ip, CD2F1 mice, survival T/C
Experiment: NCI In Vivo Anticancer Drug Screen. Data for tumor model P388 Leukemia (intraperitoneal) in CD2F1 (CDF1) mice
Conditions: endpoint: median survival time, higher = longer survival
In short: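 Mice carrying the transplanted tumor received test compound or vehicle. Survival was recorded in each group, and the value is the treated-group measurement divided by that of the vehicle-treated control group.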

[1] = dose: 50.0 mg/kg/injection, schedule: Q01DX009 (ip), vehicle: saline with Tween-80
[2] = dose: 100.0 mg/kg/injection, schedule: Q01DX009 (ip), vehicle: saline with Tween-80
[3] = dose: 200.0 mg/kg/injection, schedule: Q01DX009 (ip), vehicle: saline with Tween-80
[4] = dose: 400.0 mg/kg/injection, schedule: Q01DX009 (ip), vehicle: saline with Tween-80

Measured: T/C

CC1=CC(=O)C(O)C2(C)C1CC1OC(=O)C(OC(=O)c3ccccc3)C3(O)C4(C)OCC13C2C(O)C4O (configuration not stated)
inactive: dose: 0.75 mg/kg/injection, schedule: Q01DX005 (ip), vehicle: saline + alcohol 101 % of control | dose: 1.5 mg/kg/injection, schedule: Q01DX005 (ip), vehicle: saline + alcohol 101 % of control | dose: 3.0 mg/kg/injection, schedule: Q01DX005 (ip), vehicle: saline + alcohol 108 % of control | dose: 6.0 mg/kg/injection, schedule: Q01DX005 (ip), vehicle: saline + alcohol 105 % of control

CC1CN(/C=C2\Cc3c(Cl)cccc3C2=O)CCN1c1ccc(Cl)cc1 (configuration not stated)
inactive: dose: 100.0 mg/kg/injection, schedule: Q04DX002 (ip), vehicle: saline 100 % of control | dose: 200.0 mg/kg/injection, schedule: Q04DX002 (ip), vehicle: saline 102 % of control | dose: 400.0 mg/kg/injection, schedule: Q04DX002 (ip), vehicle: saline 100 % of control

O=C(c1ccccc1)C1OC1c1ccccc1 (configuration not stated)
inactive: [1] 104 % of control | [2] 105 % of control and 97 % of control | [3] 103 % of control and 114 % of control | [4] 109 % of control and 123 % of control | dose: 600.0 mg/kg/injection, schedule: Q01DX009 (ip), vehicle: saline with Tween-80 87 % of control

N#CN=[N+]([O-])c1cccc([N+](=O)[O-])c1
inactive: dose: 6.25 mg/kg/injection, schedule: Q04DX003 (ip), vehicle: Klucel (hydroxypropylcellulose) (HPC) 106 % of control | dose: 12.5 mg/kg/injection, schedule: Q04DX003 (ip), vehicle: Klucel (hydroxypropylcellulose) (HPC) 89 % of control

Nc1ccccc1SC1CCCCC1O (configuration not stated)
inactive: dose: 25.0 mg/kg/injection, schedule: Q01DX009 (ip), vehicle: saline 101 % of control | dose: 50.0 mg/kg/injection, schedule: Q01DX009 (ip), vehicle: saline 97 % of control | dose: 100.0 mg/kg/injection, schedule: Q01DX009 (ip), vehicle: saline 97 % of control | dose: 200.0 mg/kg/injection, schedule: Q01DX009 (ip), vehicle: saline 102 % of control

CN1CCN(C)C1=Nc1ccccc1/C=C/C=C1C(=O)N(C)C(=O)N(C)C1=O
inactive: dose: 25.0 mg/kg/injection, schedule: Q04DX002 (ip), vehicle: saline with Tween-80 114 % of control | dose: 50.0 mg/kg/injection, schedule: Q04DX002 (ip), vehicle: saline with Tween-80 106 % of control | dose: 100.0 mg/kg/injection, schedule: Q04DX002 (ip), vehicle: saline with Tween-80 123 % of control

O=C(NC(Cc1ccccc1)C(=O)O)OCc1ccccc1 (configuration not stated)
inactive: dose: 50.0 mg/kg/injection, schedule: Q01DX005 (ip), vehicle: Klucel (hydroxypropylcellulose) (HPC) 100 % of control | dose: 100.0 mg/kg/injection, schedule: Q01DX005 (ip), vehicle: Klucel (hydroxypropylcellulose) (HPC) 92 % of control | dose: 177.0 mg/kg/injection, schedule: Q01DX009 (ip), vehicle: saline with Tween-80 107 % of control | dose: 200.0 mg/kg/injection, schedule: Q01DX005 (ip), vehicle: Klucel (hydroxypropylcellulose) (HPC) 102 % of control | dose: 266.0 mg/kg/injection, schedule: Q01DX009 (ip), vehicle: saline with Tween-80 109 % of control | [4] 116 % of control

CCOC(OCC)c1c(Cl)cccc1Cl
inactive: [2] 118 % of control | dose: 100.0 mg/kg/injection, schedule: Q04DX003 (ip), vehicle: saline with Tween-80 100 % of control | [3] 118 % of control | dose: 200.0 mg/kg/injection, schedule: Q04DX003 (ip), vehicle: saline with Tween-80 100 % of control | dose: 400.0 mg/kg/injection, schedule: Q04DX003 (ip), vehicle: saline with Tween-80 90 % of control

Cc1[nH]c(NC(=O)C(=O)O)c(C#N)c1C
inactive: [1] 106 % of control | [3] 100 % of control

O=C(Cn1nnc2ccccc21)N1CCN(c2ccccc2)CC1
inactive: dose: 60.0 mg/kg/injection, schedule: Q01DX005 (ip), vehicle: saline with Tween-80 90 % of control | dose: 120.0 mg/kg/injection, schedule: Q01DX005 (ip), vehicle: saline with Tween-80 87 % of control

C=C(C#N)C(NC(C)(C)C)c1ccccc1 (configuration not stated)
inactive: dose: 12.5 mg/kg/injection, schedule: Q01DX001 (ip), vehicle: saline 96 % of control | dose: 25.0 mg/kg/injection, schedule: Q01DX001 (ip), vehicle: saline 100 % of control | dose: 50.0 mg/kg/injection, schedule: Q01DX001 (ip), vehicle: saline 115 % of control

CN(C)CC(CN(C)C)C(=O)/C=C/c1ccc(OCc2ccccc2)cc1
inactive: dose: 6.25 mg/kg/injection, schedule: Q01DX005 (ip), vehicle: saline 104 % of control | dose: 12.5 mg/kg/injection, schedule: Q01DX005 (ip), vehicle: saline 97 % of control

NC(=O)C1ONC(=O)C1N (configuration not stated)
inactive: dose: 25.0 mg/kg/injection, schedule: Q01DX009 (ip), vehicle: water 106 % of control | dose: 50.0 mg/kg/injection, schedule: Q01DX009 (ip), vehicle: water 103 % of control | dose: 100.0 mg/kg/injection, schedule: Q01DX001 (ip), vehicle: water 98 % of control | dose: 100.0 mg/kg/injection, schedule: Q01DX009 (ip), vehicle: water 104 % of control | dose: 100.0 mg/kg/injection, schedule: Q04DX003 (ip), vehicle: water 100 % of control | dose: 200.0 mg/kg/injection, schedule: Q01DX001 (ip), vehicle: water 100 % of control | dose: 200.0 mg/kg/injection, schedule: Q01DX009 (ip), vehicle: water 120 % of control | dose: 200.0 mg/kg/injection, schedule: Q04DX003 (ip), vehicle: water 101 % of control | dose: 400.0 mg/kg/injection, schedule: Q01DX001 (ip), vehicle: water 92 % of control | dose: 400.0 mg/kg/injection, schedule: Q04DX003 (ip), vehicle: water 101 % of control | dose: 600.0 mg/kg/injection, schedule: Q01DX001 (ip), vehicle: water 96 % of control

c1cc2c(cc1CN1CCOCC1)Sc1cc(CN3CCOCC3)ccc1N2
inactive: dose: 60.0 mg/kg/injection, schedule: Q01DX005 (ip), vehicle: Klucel (hydroxypropylcellulose) (HPC) 96 % of control | dose: 120.0 mg/kg/injection, schedule: Q01DX005 (ip), vehicle: Klucel (hydroxypropylcellulose) (HPC) 89 % of control | dose: 240.0 mg/kg/injection, schedule: Q01DX005 (ip), vehicle: Klucel (hydroxypropylcellulose) (HPC) 92 % of control

CC(C)(C)/C=C/N=NNc1ccccc1C(=O)NC(C)(C)C
inactive: dose: 15.0 mg/kg/injection, schedule: Q01DX005 (ip), vehicle: Klucel + Tween-80 95 % of control | dose: 30.0 mg/kg/injection, schedule: Q01DX005 (ip), vehicle: Klucel + Tween-80 101 % of control | dose: 60.0 mg/kg/injection, schedule: Q01DX005 (ip), vehicle: Klucel + Tween-80 87 % of control and 89 % of control

CCc1ncc(CO)n1Cc1cccc2ccccc12
inactive: [1] 100 % of control | [2] 102 % of control | [3] 103 % of control

CCN(CC)CCNc1ccc(C)c2oc3ccc(O)cc3c(=O)c12
inactive: dose: 12.5 mg/kg/injection, schedule: Q01DX005 (ip), vehicle: distilled water + Tween-80 106 % of control | dose: 25.0 mg/kg/injection, schedule: Q01DX005 (ip), vehicle: distilled water + Tween-80 106 % of control | dose: 50.0 mg/kg/injection, schedule: Q01DX005 (ip), vehicle: distilled water + Tween-80 117 % of control

Cc1cc(CCN)c(C)c2c1oc1ccccc12
inactive: dose: 25.0 mg/kg/injection, schedule: Q04DX003 (ip), vehicle: Klucel (hydroxypropylcellulose) (HPC) 103 % of control | dose: 50.0 mg/kg/injection, schedule: Q04DX003 (ip), vehicle: Klucel (hydroxypropylcellulose) (HPC) 99 % of control | dose: 100.0 mg/kg/injection, schedule: Q04DX003 (ip), vehicle: Klucel (hydroxypropylcellulose) (HPC) 100 % of control | dose: 200.0 mg/kg/injection, schedule: Q04DX003 (ip), vehicle: Klucel (hydroxypropylcellulose) (HPC) 105 % of control

CC1(O)Cc2ccc3c(c2C(=O)C1O)C(=O)c1cccc(O)c1C3=O (configuration not stated)
inactive: dose: 3.12 mg/kg/injection, schedule: Q01DX005 (ip), vehicle: distilled water + Tween-80 + alcohol 98 % of control | dose: 6.25 mg/kg/injection, schedule: Q01DX005 (ip), vehicle: distilled water + Tween-80 + alcohol 100 % of control | dose: 12.5 mg/kg/injection, schedule: Q01DX005 (ip), vehicle: distilled water + Tween-80 + alcohol 100 % of control | dose: 25.0 mg/kg/injection, schedule: Q01DX005 (ip), vehicle: distilled water + Tween-80 + alcohol 100 % of control

O=C(O)CCC(=O)CCl
inactive: dose: 3.13 mg/kg/injection, schedule: Q01DX009 (ip), vehicle: saline 109 % of control | dose: 25.0 mg/kg/injection, schedule: Q04DX003 (ip), vehicle: saline with Tween-80 104 % of control | dose: 50.0 mg/kg/injection, schedule: Q04DX003 (ip), vehicle: saline with Tween-80 108 % of control

CCCCCCCCCC(=O)NC(CN1CCOCC1)C(=O)c1ccccc1 (configuration not stated)
inactive: dose: 200.0 mg/kg/injection, schedule: Q04DX003 (ip), vehicle: saline 87 % of control | dose: 400.0 mg/kg/injection, schedule: Q04DX003 (ip), vehicle: saline 88 % of control
